From paper PMC3527664, “Kinetic properties and small-molecule inhibition of human myosin-6” (Febs Letters, 2012)

Legend:
human myosin-6 (M6-2R) [1] = biological target: T1, human myosin-6 (M6-2R) (Homo sapiens, UniProt Q9UM54); test: stopped-flow, ATP binding to pyrene-acto•M6-2R; steady-state ATPase turnover; design: gene MYO6; M6-2R (human myosin-6 motor domain, amino acids 1-816, fused to artificial lever); with F-actin (pyrene-actin)
Text: stopped-flow, ATP binding to pyrene-acto•M6-2R; steady-state ATPase turnover on human myosin-6 (M6-2R) | ATP binding to the complex formed by pyrene–actin and M6-2R show a linear dependence on [ATP]

human myosin-6 (M6-2R) [2] = biological target: T1, human myosin-6 (M6-2R); test: actin-activated ATPase assay (NADH-coupled), biphasic inhibition; binding also by MST (data not shown); assay type: biochemical; design: gene MYO6; amino acids 1-816 of human myosin-6 motor domain fused to an artificial lever derived from Dictyostelium discoideum α-actinin (M6-2R); with F-actin (rabbit skeletal muscle); calmodulin associated with insert-2
human myosin-6 (M6-2R) [3] = biological target: T1, human myosin-6 (M6-2R); test: stopped-flow fluorescence, second-order binding rate constant K1k+[…]; design: gene MYO6; M6-2R (human myosin-6 motor domain, amino acids 1-816, fused to artificial lever)
human myosin-6 = biological target: T2, human myosin-6 (Homo sapiens, UniProt Q9UM54); test: myosin-6 ATPase assay; MST affinity ranking; assay type: biochemical
T2 construct: gene MYO6; human myosin-6 motor domain construct M6-2R (amino acids 1-816)
T2 sequence (Q9UM54 1-816): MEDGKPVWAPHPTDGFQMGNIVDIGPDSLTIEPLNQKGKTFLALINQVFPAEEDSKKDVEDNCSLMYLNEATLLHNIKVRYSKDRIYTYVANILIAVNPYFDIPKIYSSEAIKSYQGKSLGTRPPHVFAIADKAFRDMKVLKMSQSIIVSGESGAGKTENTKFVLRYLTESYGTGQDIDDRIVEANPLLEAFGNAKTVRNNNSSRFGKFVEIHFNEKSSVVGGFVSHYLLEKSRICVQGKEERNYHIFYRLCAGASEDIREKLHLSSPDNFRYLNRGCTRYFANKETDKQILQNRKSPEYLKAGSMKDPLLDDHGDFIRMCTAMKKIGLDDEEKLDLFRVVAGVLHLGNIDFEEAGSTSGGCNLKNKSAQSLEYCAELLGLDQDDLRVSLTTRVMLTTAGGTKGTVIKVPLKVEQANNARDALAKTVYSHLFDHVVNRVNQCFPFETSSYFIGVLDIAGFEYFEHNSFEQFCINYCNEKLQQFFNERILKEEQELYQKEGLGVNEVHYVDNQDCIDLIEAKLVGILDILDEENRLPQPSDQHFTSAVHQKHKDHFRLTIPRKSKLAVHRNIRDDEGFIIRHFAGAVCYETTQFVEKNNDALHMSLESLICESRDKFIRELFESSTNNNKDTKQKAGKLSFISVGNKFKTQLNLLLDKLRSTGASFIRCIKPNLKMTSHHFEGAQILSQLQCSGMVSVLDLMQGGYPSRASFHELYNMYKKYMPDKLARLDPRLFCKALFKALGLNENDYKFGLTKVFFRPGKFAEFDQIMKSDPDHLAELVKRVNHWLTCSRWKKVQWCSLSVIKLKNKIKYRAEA

human myosin-6 (M6-2R) [4] = biological target: T1, human myosin-6 (M6-2R); test: stopped-flow fluorescence, KD = k−D/k+D; assay type: binding; design: gene MYO6; M6-2R (human myosin-6 motor domain, amino acids 1-816, fused to artificial lever); settings: read-out: Hs Myosin-6 ^a^, ^b

T1 sequence (Q9UM54 1-816): as above

Compound: Nc1ncnc2c1ncn2[C@@H]1O[C@H](COP(=O)(O)OP(=O)(O)OP(=O)(O)O)[C@@H](O)[C@H]1O [ATP]
- kon (human myosin-6 (M6-2R) [1]): 11000 ± 300 M⁻¹ s⁻¹

Compound: Oc1c(I)cc(I)cc1I [TIP, 2,4,6-triiodophenol]
- Ki (human myosin-6 (M6-2R) [2]): 0.8 ± 0.5 µM

Compound: CNc1ccccc1C(=O)O[C@H]1C[C@H](n2cnc3c(N)ncnc32)O[C@@H]1COP(=O)(O)OP(=O)(O)OP(=O)(O)O [d-mantATP, 2′-deoxy-3′-O-(N′-methylanthraniloyl)adenosine-5′-O-triphosphate]
- kon (human myosin-6 (M6-2R) [3]): 50000 ± 10000 M⁻¹ s⁻¹

Compound: Oc1c(Br)c(Br)c(Br)c(Br)c1Br [pentabromophenol]
- myosin-6 ATPase assay; MST affinity ranking (human myosin-6): Pentabromophenol and TIP inhibit myosin-6 ATPase activity in the low micromolar range

Compound: mantADP
- Kd (human myosin-6 (M6-2R) [4]): 2 ± 0.15 µM
